Laboratory results reported in US10035800B2 (AbbVie Inc., priority 2013, dated 2018).

How the values were obtained:
[1] = target: T1, BRD4 (BDII_E352-M457) (Homo sapiens, UniProt O60885); assay: TR-FRET bromodomain binding assay, second bromodomain of BRD4; conditions: 30 nM probe
T1 construct: protocol; made in house
In short: (§1)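 TR-FRET displacement of an Alexa647-labelled BET-inhibitor probe from His-tagged BRD4 BD1 or BD2 (8 nM), read via 1 nM Eu-anti-His antibody after 1 h at room temperature. Buffer was 20 mM sodium phosphate pH 6.0 with 2% DMSO. Probe was 100 nM for BDI and 30 nM for BDII. IC50 came from 4-parameter fits, and Ki from IC50, probe Kd and probe concentration.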

[2] = test system: breast cancer cell line MX-1; assay: MX-1 cell line proliferation assay; format: cell-based; conditions: MX-1 cells, 3-day proliferation assay, Cell Titer Glo; read-out: Cellular proliferation: EC50
In short: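 MX-1 cells at 5000/well, in RPMI 1640 with 10% FBS, were exposed to compounds for 3 days. Final concentrations ranged 3 μM–0.1 nM or 1 μM–0.03 nM, in 3-fold steps. Cell Titer Glo luminescence was normalized to DMSO and fitted sigmoidally for EC50; overall MSR 2.1.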

[3] = target: T2, BRD4 (BDI_K57-E168) (Homo sapiens, UniProt O60885); assay: TR-FRET bromodomain binding assay, first bromodomain of BRD4; conditions: 100 nM probe
T2 construct: BD1: amino acids K57-E168; made in house
In short: as §1

[4] = TR-FRET assay protocol G (compound 0.92 μM-15 pM)
[5] = TR-FRET assay protocol E (compound 9.19 μM-150 pM)

Row | Compound | Ki [1, 4] | EC50 [2] | Ki [3, 4] | Ki [1, 5] | Ki [3, 5]
1 | CN1CCN(Cc2[nH]c3c(=O)n(C)cc4c3c2CN(c2ccc(Cl)cc2)c2ccc(CS(C)(=O)=O)cc2-4)CC1 [Example 176, 4-(4-chlorophenyl)-10-methyl-2-((4-methylpiperazin-1-yl)methyl)-7-((methylsulfonyl)methyl)-3,4-dihydro-1H-1,4,10-triazadibenzo[cd,f]azulen-11(10H)-one] | 3.55 nM | 14.2 nM | 1.01 nM |  | 
2 | CN1CCN(Cc2[nH]c3c(=O)n(C)cc4c3c2CN(c2ccc(Cl)cc2)c2ccccc2-4)CC1 [Example 146, 4-(4-chlorophenyl)-10-methyl-2-((4-methylpiperazin-1-yl)methyl)-3,4-dihydro-1H-1,4,10-triazadibenzo[cd,f]azulen-11(10H)-one] | 17 nM | 124 nM | 1.42 nM |  | 
3 | Cn1cc2c3c(c[nH]c3c1=O)C(C(=O)NCc1ccccc1)N(c1ccc(F)cc1F)c1ccc(CS(C)(=O)=O)cc1-2 (racemic) [Example 159, N-benzyl-4-(2,4-difluorophenyl)-10-methyl-7-((methylsulfonyl)methyl)-11-oxo-3,4,10,11-tetrahydro-1H-1,4,10-triazadibenzo[cd,f]azulene-3-carboxamide] | 19.8 nM | 57.8 nM | 38.6 nM |  | 
4 | CCNC(=O)c1[nH]c2c(=O)n(C)cc3c2c1CN(c1ccc(Cl)cc1)c1ccccc1-3 [Example 127, 4-(4-chlorophenyl)-N-ethyl-10-methyl-11-oxo-3,4,10,11-tetrahydro-1H-1,4,10-triazadibenzo[cd,f]azulene-2-carboxamide] | 1.35 nM | 41.7 nM | 2.68 nM |  | 
5 | Cn1cc2c3c(c[nH]c3c1=O)C(CO)N(c1ccc(F)cc1F)c1ccc(CS(C)(=O)=O)cc1-2 (stereo not drawn) [Example 200, 4-(2,4-difluorophenyl)-3-(hydroxymethyl)-10-methyl-7-((methylsulfonyl)methyl)-3,4-dihydro-1H-1,4,10-triazadibenzo[cd,f]azulen-11(10H)-one] | 2.05 nM | 34.2 nM | 8.18 nM |  | 
6 | CN(C)C(=O)CCC1c2c[nH]c3c(=O)n(C)cc(c23)-c2cc(CS(C)(=O)=O)ccc2N1c1ccc(F)cc1F (stereo not drawn) [Example 119, 3-(4-(2,4-difluorophenyl)-10-methyl-7-((methylsulfonyl)methyl)-11-oxo-3,4,10,11-tetrahydro-1H-1,4,10-triazadibenzo[cd,f]azulen-3-yl)-N,N-dimethylpropanamide] | 0.602 nM | 134 nM | 11.9 nM |  | 
7 | CCCCNC(=O)C1c2c[nH]c3c(=O)n(C)cc(c23)-c2cc(CS(C)(=O)=O)ccc2N1c1ccc(F)cc1F (stereo not drawn) [Example 157, N-butyl-4-(2,4-difluorophenyl)-10-methyl-7-((methylsulfonyl)methyl)-11-oxo-3,4,10,11-tetrahydro-1H-1,4,10-triazadibenzo[cd,f]azulene-3-carboxamide] | 23.9 nM | 77.4 nM | 39.6 nM |  | 
8 | CC#CCOC(=O)N1Cc2c[nH]c3c(=O)n(C)cc(c23)-c2cc(CS(C)(=O)=O)ccc21 [Example 98, but-2-yn-1-yl 10-methyl-7-((methylsulfonyl)methyl)-11-oxo-10,11-dihydro-1H-1,4,10-triazadibenzo[cd,f]azulene-4(3H)-carboxylate] | 3.15 nM | 4.41 nM | 2.34 nM |  | 
9 | CCOC(=O)c1[nH]c2c(=O)n(C)cc3c2c1CN(c1ccc(F)cc1F)c1ccc(CS(C)(=O)=O)cc1-3 [Example 208, ethyl 4-(2,4-difluorophenyl)-10-methyl-7-((methylsulfonyl)methyl)-11-oxo-3,4,10,11-tetrahydro-1H-1,4,10-triazadibenzo[cd,f]azulene-2-carboxylate] | 1.15 nM | 10.7 nM | 3.41 nM |  | 
10 | CN(C)CCCC1c2c[nH]c3c(=O)n(C)cc(c23)-c2cc(CS(C)(=O)=O)ccc2N1c1ccc(F)cc1F (racemic) [Example 175, 4-(2,4-difluorophenyl)-3-(3-(dimethylamino)propyl)-10-methyl-7-((methylsulfonyl)methyl)-3,4-dihydro-1H-1,4,10-triazadibenzo[cd,f]azulen-11(10H)-one] | 1.9 nM | 99.9 nM | 15 nM |  | 
11 | 3-(4-(2,4-difluorophenyl)-10-methyl-7-((methylsulfonyl)methyl)-11-oxo-3,4,10,11-tetrahydro-1H-1,4,10-triazadibenzo[cd,f]azulen-3-yl)propanamide [Example 99] | 1.66 nM | 165 nM | 15.5 nM |  | 
12 | Cn1cc2c3c(c(CN4CCOCC4)[nH]c3c1=O)CN(c1ccc(Cl)cc1)c1ccc(CS(C)(=O)=O)cc1-2 [Example 193, 4-(4-chlorophenyl)-10-methyl-7-((methylsulfonyl)methyl)-2-(morpholinomethyl)-3,4-dihydro-1H-1,4,10-triazadibenzo[cd,f]azulen-11(10H)-one] | 12.4 nM | 31.7 nM | 1.85 nM |  | 
13 | CC(C)CC1Nc2ccc(CS(C)(=O)=O)cc2-c2cn(C)c(=O)c3[nH]cc1c23 (racemic) [Example 19, 3-isobutyl-10-methyl-7-((methylsulfonyl)methyl)-3,4-dihydro-1H-1,4,10-triazadibenzo[cd,f]azulen-11(10H)-one] |  | 370 nM |  | 43.8 nM | 246 nM
14 | Cn1cc2c3c(c[nH]c3c1=O)C(CN1C(=O)c3ccccc3C1=O)N(c1ccc(F)cc1F)c1ccc(CS(C)(=O)=O)cc1-2 (stereo not drawn) [Example 117, 2-((4-(2,4-difluorophenyl)-10-methyl-7-((methylsulfonyl)methyl)-11-oxo-3,4,10,11-tetrahydro-1H-1,4,10-triazadibenzo[cd,f]azulen-3-yl)methyl)isoindoline-1,3-dione] | 1.27 nM | > 1000 nM | 72.3 nM |  | 
15 | Cn1cc2c3c(c(C#N)[nH]c3c1=O)CN(c1ccc(F)cc1F)c1ccc(CS(C)(=O)=O)cc1-2 [Example 210, 4-(2,4-difluorophenyl)-10-methyl-7-((methylsulfonyl)methyl)-11-oxo-3,4,10,11-tetrahydro-1H-1,4,10-triazadibenzo[cd,f]azulene-2-carbonitrile] | 0.8 nM | 13.3 nM | 1.72 nM |  | 
16 | tert-butyl 4-(4-(4-fluorophenyl)-10-methyl-7-((methylsulfonyl)methyl)-11-oxo-3,4,10,11-tetrahydro-1H-1,4,10-triazadibenzo[cd,f]azulene-3-carbonyl)piperazine-1-carboxylate [Example 35] | 95.1 nM | 331 nM | 35.5 nM |  | 
17 | Cn1cc2c3c(c[nH]c3c1=O)[C@@H](c1ccccc1)N(c1ccc(F)cc1F)c1ccc(CS(C)(=O)=O)cc1-2 (single isomer, unassigned) [Example 215] | 5.87 nM | 454 nM | 65.7 nM |  | 
18 | Cn1cc2c3c(c[nH]c3c1=O)C(Cn1ccccc1=O)N(c1ccc(F)cc1F)c1ccc(CS(C)(=O)=O)cc1-2 (single isomer, unassigned) [Example 252] | 2.24 nM | 108 nM | 16.1 nM |  | 
19 | Cn1cc2c3c(c[nH]c3c1=O)CN(C(=O)NC1CCCC1)c1ccc(CS(C)(=O)=O)cc1-2 [Example 44, N-cyclopentyl-10-methyl-7-((methylsulfonyl)methyl)-11-oxo-10,11-dihydro-1H-1,4,10-triazadibenzo[cd,f]azulene-4(3H)-carboxamide] | 2.47 nM | 48.7 nM | 2.61 nM |  | 
20 | Cn1cc2c3c(c[nH]c3c1=O)CN(Cc1ccccc1)c1ccc(CS(C)(=O)=O)cc1-2 [Example 247, 4-benzyl-10-methyl-7-((methylsulfonyl)methyl)-3,4-dihydro-1H-1,4,10-triazadibenzo[cd,f]azulen-11(10H)-one] | 2.42 nM | 4.94 nM | 2.22 nM |  | 
21 | Cc1ccc(OC(=O)N2Cc3c[nH]c4c(=O)n(C)cc(c34)-c3cc(CS(C)(=O)=O)ccc32)cc1 [Example 91, p-tolyl 10-methyl-7-((methylsulfonyl)methyl)-11-oxo-10,11-dihydro-1H-1,4,10-triazadibenzo[cd,f]azulene-4(3H)-carboxylate] | 1.15 nM | 1.81 nM | 3.27 nM |  | 
22 | Cn1cc2c3c(c[nH]c3c1=O)C(CCC(=O)N1CCNCC1)N(c1ccc(F)cc1F)c1ccc(CS(C)(=O)=O)cc1-2 (stereo not drawn) [Example 131, 4-(2,4-difluorophenyl)-10-methyl-7-((methylsulfonyl)methyl)-3-(3-oxo-3-(piperazin-1-yl)propyl)-3,4-dihydro-1H-1,4,10-triazadibenzo[cd,f]azulen-11(10H)-one] | 2.35 nM | > 1000 nM | 10.7 nM |  | 
23 | Cn1cc2c3c(c[nH]c3c1=O)C(c1cccc3cccnc13)N(c1ccc(F)cc1F)c1ccc(CS(C)(=O)=O)cc1-2 (stereo not drawn) [Example 231, 4-(2,4-difluorophenyl)-10-methyl-7-((methylsulfonyl)methyl)-3-(quinolin-8-yl)-3,4-dihydro-1H-1,4,10-triazadibenzo[cd,f]azulen-11(10H)-one] | 5.42 nM | 149 nM | 39 nM |  | 
